Reference: patent publication US12622892B2, “Methods for treating endometriosis” (THE TEXAS A&M UNIVERSITY SYSTEM, priority 2020, dated 2026)

Experiments:
[1] = test system: NEM cells; experiment: Western blotting of growth promoting and proapoptotic gene products, NEM cells; format: cell-based, human
[2] = target: T1, GAL4-NR4A1 (Homo sapiens, UniProt P22736); experiment: Luciferase assay, GAL4-NR4A1 chimera/UAS-luc in ESECT-7 cells; format: cell-based; conditions: ESECT-7 cells transfected with GAL4-NR4A1 chimera/UAS-luc; 18 hr treatment; FIG. 2A
T1 construct: GAL4 (fusion partner); expressed in transfected cells; host or cells: ESECT-7 patient-derived endometriotic cells
Protocol: (§1) Luciferase assay: ESECT-7 and ESECT-40 cells were plated on 12-well plates in DMEM/F12 supplemented with 2.5% charcoal-stripped FBS. After overnight attachment and growth, various amounts of DNA [i.e., UASx5-Luc (500 ng), GAL4-NR4A1 (50 ng), NBREx3-Luc (800 ng), NurREx3-Luc (800 ng) and Flag-NR4A1 (80 ng)] were co-transfected into each well using Lipofectamine 2000 reagent (Invitrogen, Carlsbad, CA) according to the manufacturer's protocol. After 6 hr of transfection, cells were treated with plating medium (as above) containing either solvent (DMSO) or indicated concentrations of the compound for 18 hr. Cells were then lysed and cell extracts were used for chemiluminescence quantification of luciferase activity. Luciferase activity values were normalized against corresponding protein concentration values determined by Bradford assay. Both GAL4- and Flag-NR4A1 constructs contain full-length NR4A1 coding sequence and all the plasmids used in this study were previously described.

[3] = test system: Ishikawa cells; experiment: Expression of fibrosis markers in Ishikawa cells; format: cell-based; conditions: 24 hours, FIG. 6D
[4] = test system: ESECT-7 cells; experiment: Quantitative real-time PCR of fibrosis markers, ESECT-7; format: cell-based, human; conditions: 24 hours, 20-25 μM DIM-C-pPhOH, 5-10 μM DIM-C-pPhOH-3-Cl-5-OCH3, vs DMSO control, FIG. 5C
Protocol: Quantitative real-time PCR: Total RNA was isolated from cultured cells according to the manufacturer's instructions (Zymo Research, Irvine, CA). The concentration and purity of the RNA samples were determined using a nanodrop spectrophotometer. Total RNA was reverse transcribed using iTaq Universal SYBR Green One-Step Kit (Thermo Fisher Scientific, Grand Island, NY) using the manufacturer's protocol with the CFX384 real-time PCR System (Bio-Rad). The comparative cycle threshold method was used for relative quantitation of samples. Values for each gene were normalized to expression levels of TATA-binding protein. The sequences of the primers used for real-time PCR included the following: α-SMA, 5′-GGCCGAGATCTCACTGACTAC-3′ (sense, SEQ ID NO. 13) and 5′-TTC ATG GAT GCC AGC AGA-3′ (antisense, SEQ ID NO. 14); COL1A1, 5′-CAG CCG CTT CAC CTA CAG C-3′ (sense, SEQ ID NO. 15) and 5′-TTTTGTATTCAATCAGTGTCTTGCC-3′ (antisense, SEQ ID NO. 16); CTGF, 5′-TTGGCCCAGACCCAACTATG-3′(sense, SEQ ID NO. 17) and 5′-CAGGAGGCGTTGTCATTGGT-3′ (antisense, SEQ ID NO. 18); FN, 5′-GGG AGC CTC GAA GAG C-3′ (sense 19) and 5′-AACAAGTACAAACCAACGCA-3′ (antisense, SEQ ID NO. 20) and TATA-binding protein, 5′-GATCAGAACAACAGCCTGCC-3′ (sense, SEQ ID NO. 21) and 5′-TTCTGAATAGGCTGTGGGGT-3′ […].

[5] = test system: ESECT-40 cells; experiment: Annexin V staining, ESECT-40; format: cell-based, human; conditions: 10 μM DIM-C-pPhOH-3-Cl-5-OCH3, 25 μM DIM-C-pPhOH, FIG. 3B
Protocol: Annexin V staining: ESECT-7 and ESECT-40 cells were seeded in Nunc chambered cover glass followed by various drug treatments. The cells were then washed with ice-cold PBS, and 5 μL Alexa Fluor® 488 Annexin V with 100 μg/mL PI (as per the manufacturer's instructions) were added to the cells and incubated for 15 min, and the cells were observed using a Zeiss confocal fluorescence microscope.

[6] = target: T2, NR4A1 (Homo sapiens, UniProt P22736); experiment: Luciferase assay, NR4A1/NBRE-luc in ESECT-7 cells; format: cell-based; conditions: ESECT-7 cells transfected with NR4A1/NBRE-luc; 18 hr treatment; FIG. 2A
T2 construct: expressed in transfected cells; host or cells: ESECT-7 patient-derived endometriotic cells
Protocol: as §1

[7] = test system: NEM cells; experiment: Cell growth, normal endometrial NEM cells; format: cell-based, human; conditions: 24 hr; 15-25 μM DIM-C-pPhOH, 5-10 μM DIM-C-pPhOH-3-Cl-5-OCH3; vs DMSO control; FIG. 4A
Protocol: Primary human endometriotic stromal cells from endometriosis patients: Ovarian endometrioma were isolated from endometriosis patients in the proliferative phase following the IRB-approved protocol. Isolated ectopic lesions were digested with collagenase type 3 (300 μg/ml) and DNaseI (40 μg/ml) for 90 min at 37° C., and then tissues were filtered through 150, 100, and 40 μm sieves to isolate endometrial stromal cells. The collected endometrial stromal cells were cultured in DMEM/F12 with 10% FBS plus 1× antibiotic/antimycotic solution and then validated by flow cytometry with a CD90 antibody (a mesenchymal marker). Henceforth, we refer to the stromal cells as ectopic endometrium isolated ovarian endometrioma (ESECT). As the control, primary normal endometrial stromal cells isolated from the biopsy of the eutopic endometrium of normal women (NEM) in the proliferative phase. All cells were incubated at 37° C. in CO2 incubator in an atmosphere of humidified 5% CO2 and 95% air.
Cell proliferation assay: Patient-derived endometriotic cells ESECT-7 and ESECT-40 were seeded into a 96-well plate, and the cells were then treated for 24 hr with either DMSO or different concentrations of DIM-C-pPhOH and DIM-C-pPhOH-3-Cl-5-OCH3. […] Dimethyl sulfoxide (DMSO) was added and incubated at […] for 10 min, and absorbance was measured at 570 nm.

T2 sequence (P22736 whole entry, species assumed): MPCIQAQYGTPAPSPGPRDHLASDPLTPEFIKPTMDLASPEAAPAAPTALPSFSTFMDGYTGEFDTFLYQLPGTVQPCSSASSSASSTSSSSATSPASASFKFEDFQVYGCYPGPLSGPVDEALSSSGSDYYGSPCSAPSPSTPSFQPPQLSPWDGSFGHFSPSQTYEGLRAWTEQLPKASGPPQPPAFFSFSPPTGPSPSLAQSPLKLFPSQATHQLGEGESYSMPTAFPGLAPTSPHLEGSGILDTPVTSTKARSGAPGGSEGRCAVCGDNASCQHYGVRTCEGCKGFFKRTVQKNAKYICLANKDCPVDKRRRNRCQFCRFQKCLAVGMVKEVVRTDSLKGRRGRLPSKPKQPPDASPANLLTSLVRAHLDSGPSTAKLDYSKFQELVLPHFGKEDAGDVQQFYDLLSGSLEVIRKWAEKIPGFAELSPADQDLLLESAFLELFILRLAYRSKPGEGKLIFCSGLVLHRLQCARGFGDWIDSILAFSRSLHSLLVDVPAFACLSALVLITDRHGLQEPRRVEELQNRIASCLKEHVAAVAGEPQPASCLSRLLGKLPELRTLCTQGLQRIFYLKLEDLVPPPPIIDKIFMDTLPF
T1 sequence (P22736 with tags, fused parts or gaps): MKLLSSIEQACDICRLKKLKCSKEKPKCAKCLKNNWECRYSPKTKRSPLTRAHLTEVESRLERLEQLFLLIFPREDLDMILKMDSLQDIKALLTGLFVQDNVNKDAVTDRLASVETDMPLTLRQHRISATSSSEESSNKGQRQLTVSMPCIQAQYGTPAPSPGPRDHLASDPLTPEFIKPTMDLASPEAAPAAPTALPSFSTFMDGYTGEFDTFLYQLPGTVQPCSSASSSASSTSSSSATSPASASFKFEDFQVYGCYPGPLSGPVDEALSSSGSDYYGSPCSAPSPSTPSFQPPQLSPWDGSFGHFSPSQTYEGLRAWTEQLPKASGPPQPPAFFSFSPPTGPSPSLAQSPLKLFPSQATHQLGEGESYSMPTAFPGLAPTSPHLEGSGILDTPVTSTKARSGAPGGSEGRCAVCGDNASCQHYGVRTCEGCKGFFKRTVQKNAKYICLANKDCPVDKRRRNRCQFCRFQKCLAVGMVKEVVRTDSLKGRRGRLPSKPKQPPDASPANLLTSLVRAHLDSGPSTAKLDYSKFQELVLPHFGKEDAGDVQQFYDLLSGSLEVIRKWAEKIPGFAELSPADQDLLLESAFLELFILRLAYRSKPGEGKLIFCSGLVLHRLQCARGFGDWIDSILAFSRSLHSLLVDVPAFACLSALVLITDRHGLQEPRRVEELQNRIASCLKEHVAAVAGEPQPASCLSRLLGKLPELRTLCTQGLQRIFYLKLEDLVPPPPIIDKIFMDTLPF

COc1cc(C(c2c[nH]c3ccccc23)c2c[nH]c3ccccc23)cc(Cl)c1O [DIM-C-pPhOH-3-Cl-5-OCH3]
levels of the cleaved form of PARP and Bax ([1]; 25 μM DIM-C-pPhOH, 10 μM DIM-C-pPhOH-3-Cl-5-OCH3, vs DMSO control, FIG. 4D): did not enhance
cMyc and EGFR expression ([1]; 15-25 μM DIM-C-pPhOH, 5-10 μM DIM-C-pPhOH-3-Cl-5-OCH3, vs DMSO control, FIG. 4B): did not decrease
intrinsic transcriptional activity of GAL4-NR4A1 [2]: inhibited the intrinsic transcriptional activity
expression of fibrosis markers (α-SMA, COL1A1, FN, CTGF) [3]: decreased expression of fibrosis markers
mRNA levels of fibrosis markers (FN, Col1A1, CTGF) [4]: decreased mRNA levels
Annexin V staining (apoptosis) [5]: significantly induced
intrinsic transcriptional activity of NR4A1 [6]: inhibited the intrinsic transcriptional activity
growth of normal endometrial NEM cells [7]: did not suppress the growth
